Results on 20 molecules are retold here after patent US20170129903A1, “COMPOUNDS COMPRISING 1,1a,2,5a-TETRAHYDROSPIRO[INDOLE-3,2a-PYRROLE]-2,5a-DIONE SYSTEM AS INHIBITORS P53-MDM2 PROTEIN-PROTEIN INTERACTION” (ADAMED SP. Z O.O., priority 2014, published 2017).

The target in test [1] is T1, p53-Mdm2 interaction (N-terminal domain of Mdm2 protein, amino acids 1-111) (Homo sapiens, UniProt Q00987).
T1 construct: N-terminal domain of Mdm2 protein (amino acids 1-111)
In words: Fluorescence polarization (FP) binding assay of p53-Mdm2 interaction. The settings on record: FP assay, 130 nM Mdm2, FAM-labelled p53 peptide; Ki transformed from IC50 using Kenakin equation. Here is the method: The inhibition of p53-Mdm2 interaction was measured using a fluorescence polarization (FP) binding assay. FP measures the rotational movement of molecules in a homogenous suspension. For this assay, N-terminal domain of Mdm2 protein (amino acids 1-111) is combined with a fluorescein-labelled (FAM) peptide derived from p53 trans-activation domain. Upon excitation of the fluorescent ligand with linearly polarized light, […]. If the peptide is bound by Mdm2, rotation will slow down and the perpendicular component will decrease. Disruption of the formation of the peptide-Mdm2 complex due to an inhibitor molecule binding to the p53 binding site of Mdm2 results in faster rotation of the peptide.
Fluorescence polarization experiments were read on Tecan Infinite M1000 reader with the 470 nm excitation and 520 nm emission filters for fluorescein. The fluorescence polarization was measured in black 96-well plates (Corning, CLS3991) in room temperature. Purity of Mdm2 was controlled at >95%. Reaction buffer was optimized by adding 5 mM DTT and 0.1% zwitterionic detergent CHAPS to reduce effect of nonspecific interactions.
The test was performed by combining successive dilution of compounds diluted in dimethyl sulfoxide (DMSO, 5% final concentration) with 130 nM Mdm2 in reaction buffer (PBS, 0.1% CHAPS, 5 mM DTT (dithiothreitol)). After 15 minutes of incubation in room temperature […] FAM-labelled peptide was added. Final reading was performed after 90 minutes of incubation. Dose-dependent binding curves and IC50 values were calculated using GraphPad Prism5 and next transformed to Ki values using Kenakin equation.

Test [2] concerns SJSA-1 osteosarcoma cell line. Briefly: MTT cell viability assay. It is filed as cell-based. The note with it: Homo sapiens, SJSA-1, 72 h, 72 h incubation, average of 2-5 experiments. Here is the method:
The effect of the invented p53-Mdm2 inhibitors on cell viability has been assessed using MTT assay. It is a colorimetric assay that measures conversion of tetrazolium ring of the soluble yellow dye (MTT) into insoluble purple formazan. This process is catalysed solely in mitochondrial dehydrogenases of living cells.
Cells were seeded on 96-well plates and then treated with successive dilutions of tested compounds. After 72 h incubation, MTT was added to the final concentration 0.5 mg/ml. The cells were further incubated for the next 4 h. Then the solution was drained and the remaining formazan crystals were dissolved in 100 μl DMSO. […] All the MTT experiments were independently repeated 2-5 times. Dose-dependent binding curves and IC50 values were calculated using GraphPad Prism 5.
A general note: Tetrazolium dyes change colour on reduction, which living cells bring about.

Each structure is given as a SMILES string.

T1 sequence (Q00987 1-111): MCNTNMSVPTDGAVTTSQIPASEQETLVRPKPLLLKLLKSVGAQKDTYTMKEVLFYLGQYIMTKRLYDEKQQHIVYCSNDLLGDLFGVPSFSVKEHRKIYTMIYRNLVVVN

What is called Ki is a dissociation constant, usually derived from enzyme kinetics or from competition with a known ligand. A high value points to lower affinity. As usually defined, the IC50 is the midpoint of a concentration-inhibition curve. Read a high IC50 as weaker potency in that assay. `COc1ccccc1-n1nc2c(c1C(C)C)C1(C(=O)Nc3cc(Cl)ccc31)N(c1cccc(Cl)c1)C2=O` (stereo not shown) [Compound 27, 6-chloro-5′-(3-chlorophenyl)-2′-(2-methoxyphenyl)-3′-(propan-2-yl)-1,2,5′,6′-tetrahydro-2′H-spiro[indole-3,4′-pyrrolo [3,4-c]pyrazole]-2,6′-dione] came in with a Ki in test [1] of 4.3 nM. Moreover, in test [2], the IC50 is 1.07 µM.
For `CC1(c2c3c(nn2CC2CCCN2)C(=O)N(c2cccc(Cl)c2)C32C(=O)Nc3cc(Cl)ccc32)CC1` (stereo not shown) [Compound 28, 6-chloro-5′-(3-chlorophenyl)-3′-(1-methylcyclopropyl)-2′-(pyrrolidin-2-ylmethyl)-1,2,5′,6′-tetrahydro-2′H-spiro [indole-3,4′-pyrrolo[3,4-c]pyrazole]-2,6′-dione], in that order: 1460 nM and 32 µM.
Molecule `CN(C)C(=O)C1CCCC1Cn1nc2c(c1C1(C)CC1)C1(C(=O)Nc3cc(Cl)ccc31)N(c1cccc(Cl)c1)C2=O` (stereo not shown) [Compound 29, 2-[6-chloro-5′-(3-chlorophenyl)-3′-(1-methylcyclopropyl)-2,6′-dioxo-1,2,5′,6′-tetrahydro-2′H-spiro[indole-3,4′-pyrrolo [3,4-c]pyrazole]-2′-ylmethyl]-N,N-dimethylcyclopentane-1-carboxamide] had an inhibitory constant (Ki) in test [1] of 358 nM. Also, the 50% inhibitory concentration (IC50) in test [2] was found to be 48.8 µM.
In the case of `COc1ccc(Cl)cc1N1C(=O)c2nn(-c3ccccc3OC)c(C(C)C)c2C12C(=O)Nc1cc(Cl)ccc12` (stereo not shown) [Compound 30, 6-chloro-5′-(5-chloro-2-methoxyphenyl)-2′-(2-methoxyphenyl)-3′-(propan-2-yl)-1,2,5′,6′-tetrahydro-2′H-spiro[indole-3,4′-pyrrolo[3,4-c]pyrazole]-2,6′-dione], the Ki in test [1] amounted to 8.2 nM. Also, in test [2], inhibition was half-maximal at 1.36 µM (IC50).
For `COc1ccccc1-n1nc2c(c1C(C)C)C1(C(=O)Nc3cc(Cl)ccc31)N(c1cc(Cl)ccc1C)C2=O` (stereo not shown) [Compound 31, 6-chloro-5′-(5-chloro-2-methylphenyl)-2′-(2-methoxyphenyl)-3′-(propan-2-yl)-1,2,5′,6′-tetrahydro-2′H-spiro[indole-3,4′-pyrrolo[3,4-c]pyrazole]-2,6′-dione], in that order: 4.7 nM and 0.53 µM.
Regarding `CC(C)c1c2c(nn1CC1CCCN1C(=O)N(C)C)C(=O)N(c1cccc(Cl)c1)C21C(=O)Nc2cc(Cl)ccc21` (stereo not shown) [Compound 34, 2-[6-chloro-5′-(3-chlorophenyl)-2,6′-dioxo-3′-(propan-2-yl)-1,2,5′,6′-tetrahydro-2′H-spiro[indole-3,4′-pyrrolo [3,4-c]pyrazole]-2′-ylmethyl]-N,N-dimethylpyrrolidine-1-carboxamide], in test [1], the affinity corresponds to a Ki of 235 nM. The same molecule came in with an IC50 in test [2] of 24.2 µM.
Regarding `O=C1C(O)=C(c2ccccc2)C2(C(=O)Nc3cc(Cl)ccc32)N1c1cccc(Cl)c1` (stereo not shown) [Compound 41, 6-chloro-1′-(3-chlorophenyl)-4′-hydroxy-3′-phenyl-1,1′,2,5′-tetrahydrospiro[indole-3,2′-pyrrole]-2,5′-dione], the Ki in test [1] is 24 nM. In addition, in test [2], the concentration for half-maximal inhibition (IC50) was 21.4 µM.
With `O=C1C(O)=C(c2ccccc2)C2(C(=O)Nc3cc(Cl)c(Cl)cc32)N1c1cccc(Cl)c1` (stereo not shown) [Compound 43, 5,6-dichloro-1′-(3-chlorophenyl)-4′-hydroxy-3′-phenyl-1,1′,2,5′-tetrahydrospiro [indole-3,2′-pyrrole]-2,5′-dione], the Ki in test [1] is 650 nM. For the same molecule, the IC50 in test [2] came out at 43.8 µM.
For `O=C1C(O)=C(C2CCCCC2)C2(C(=O)Nc3cc(Cl)ccc32)N1c1cccc(Cl)c1` (stereo not shown) [Compound 44, 6-chloro-1′-(3-chlorophenyl)-3′-cyclohexyl-4′-hydroxy-1,1′,2,5′-tetrahydrospiro[indole-3,2′-pyrrole]-2,5′-dione], in that order: 281 nM and 18.1 µM.
`O=C1C(O)=C(c2ccccc2)C2(C(=O)Nc3cc(Cl)ccc32)N1c1cc(Cl)ccc1F` (stereo not shown) [Compound 45, 6-chloro-1′-(5-chloro-2-fluorophenyl)-4′-hydroxy-3′-phenyl-1,1′,2,5′-tetrahydrospiro[indole-3,2′-pyrrole]-2,5′-dione] displayed an inhibition constant Ki in test [1] of 36 nM. In test [2], this molecule gave a half-inhibitory concentration (IC50) of 29.9 µM.
In test [1], `COc1ccc(Cl)cc1N1C(=O)C(O)=C(c2ccccc2)C12C(=O)Nc1cc(Cl)ccc12` (stereo not shown) [Compound 46, 6-chloro-1′-(5-chloro-2-methoxyphenyl)-4′-hydroxy-3′-phenyl-1,1′,2,5′-tetrahydrospiro[indole-3,2′-pyrrole]-2,5′-dione] registered an inhibition constant Ki of 96 nM. In addition, the IC50 in test [2] amounted to 32.3 µM.
As to `Cc1ccc(Cl)cc1N1C(=O)C(O)=C(c2ccccc2)C12C(=O)Nc1cc(Cl)ccc12` (stereo not shown) [Compound 47, 6-chloro-1′-(5-chloro-2-methylphenyl)-4′-hydroxy-3′-phenyl-1,1′,2,5′-tetrahydrospiro[indole-3,2′-pyrrole]-2,5′-dione], the Ki in test [1] is 29 nM. In test [2], the IC50 amounted to 44.5 µM.
In test [1], `CCOC(=O)CNC1=C(c2ccccc2)C2(C(=O)Nc3cc(Cl)ccc32)N(c2cccc(Cl)c2)C1=O` (stereo not shown) [Compound 48, ethyl 2-{[6-chloro-1′-(3-chlorophenyl)-2,5′-dioxo-3′-phenyl-1,1′,2,5′-tetrahydrospiro[indole-3,2′-pyrrole]-4′-yl]amino}acetate] returned an inhibition constant Ki of 205 nM. In addition, in test [2], the concentration for half-maximal inhibition (IC50) was found to be 28 µM.
In turn, `CS(=O)(=O)OC1=C(c2ccccc2)C2(C(=O)Nc3cc(Cl)ccc32)N(c2cccc(Cl)c2)C1=O` (stereo not shown) [Compound 52, 6-chloro-1′-(3-chlorophenyl)-2,5′-dioxo-3′-phenyl-1,1′,2,5′-tetrahydrospiro[indole-3,2′-pyrrole]-4′-yl methanesulfonate] registered an inhibition constant Ki in test [1] of 800 nM. In test [2], the IC50 worked out at 39.6 µM.
For `NC(=O)CSC1=C(c2ccccc2)C2(C(=O)Nc3cc(Cl)ccc32)N(c2cccc(Cl)c2)C1=O` (stereo not shown) [Compound 53, 2-[6-chloro-1′-(3-chlorophenyl)-2,5′-dioxo-3′-phenyl-1,1′,2,5′-tetrahydrospiro [indole-3,2′-pyrrole]-4′-ylsulfanyl] acetamide], in that order: 581 nM and 29.6 µM.
In test [1], `COc1ccc(CSC2=C(O)C(=O)N(c3cccc(Cl)c3)C23C(=O)Nc2cc(Cl)ccc23)cc1` (stereo not shown) [Compound 59, 6-chloro-1′-(3-chlorophenyl)-4′-hydroxy-3′-{[(4-methoxyphenyl)methyl]sulfanyl}-1,1′,2,5′-tetrahydrospiro[indole-3,2′-pyrrole]-2,5′-dione] displayed a Ki of 178 nM. The same molecule had an IC50 in test [2] of 37.5 µM.
For `COC(=O)/C=C/COc1ccc(Cl)cc1N1C(=O)c2nn(-c3ccccc3OC)c(C(C)C)c2C12C(=O)Nc1cc(Cl)ccc12` (stereo not shown) [Compound 62, methyl (2E)-4-{4-chloro-2-[6-chloro-2′-(2-methoxyphenyl)-2,6′-dioxo-3′-(propan-2-yl)-1,2,5′,6′-tetrahydro-2′H-spiro[indole-3,4′-pyrrolo[3,4-c]pyrazole]-5′-yl]phenoxy}but-2-enoate], in that order: 11 nM and 2.23 µM.
In test [1], `COc1ccccc1-n1nc2c(c1C(C)C)[C@@]1(C(=O)Nc3cc(Cl)ccc31)N(c1cc(Cl)ccc1C)C2=O` [Compound 65, (3S)-6-chloro-5′-(5-chloro-2-methyl-phenyl)-2′-(2-methoxyphenyl)-3′-(propan-2-yl)-1,2,5′,6′-tetrahydro-2′H-spiro[indole-3,4′-pyrrolo[3,4-c]pyrazole]-2,6′-dione] had an inhibition constant (Ki) of 1.9 nM. The half-maximal inhibitory concentration (IC50) in test [2] was 0.22 µM.
On to `CCc1ccccc1-n1nc2c(c1C(C)C)C1(C(=O)Nc3cc(Cl)ccc31)N(c1cc(Cl)ccc1C)C2=O` (stereo not shown) [Compound 67, 6-chloro-5′-(5-chloro-2-methylphenyl)-2′-(2-ethylphenyl)-3′-(propan-2-yl)-1,2,5′,6′-tetrahydro-2′H-spiro[indole-3,4′-pyrrolo [3,4-c]pyrazole]-2,6′-dione], for which the inhibition constant Ki in test [1] is 86 nM. Also, half-maximal inhibition in test [2] (IC50) required 12.4 µM.
Consider `Cc1ccc(Cl)cc1N1C(=O)c2nn(-c3ccccc3C)c(C(C)C)c2C12C(=O)Nc1cc(Cl)ccc12` (stereo not shown) [Compound 68, 6-chloro-5′-(5-chloro-2-methylphenyl)-2′-(2-methylphenyl)-3′-(propan-2-yl)-1,2,5′,6′-tetrahydro-2′H-spiro[indole-3,4′-pyrrolo[3,4-c]pyrazole]-2,6′-dione], for which affinity in test [1] was put at a Ki of 46 nM. Besides, the IC50 in test [2] stood at 6.35 µM.
